# Assay results as given in patent US12258376B2, “Fusion protein of DCTN1 protein with RET protein” (TAIHO PHARMACEUTICAL CO., LTD., priority 2017, dated 2025).
# Key:
# [1] = target: T1, phosphorylated RET in DCTN1-RET fusion gene-expressing NIH/3T3 cells (Homo sapiens, UniProt P07949); assay: Inhibition of RET phosphorylation in DCTN1-RET fusion gene-expressing cells (western blotting); assay type: cell-based; details: 1000, 100 and 10 nmol/L, 1 hour incubation, FIG. 9
# T1 construct: expressed in transfected cells; the other entry of the earlier key: Dctn1 (O08788, Dynactin subunit 1)
# T1 sequence (P07949 with tags, fused parts or gaps with the stated changes): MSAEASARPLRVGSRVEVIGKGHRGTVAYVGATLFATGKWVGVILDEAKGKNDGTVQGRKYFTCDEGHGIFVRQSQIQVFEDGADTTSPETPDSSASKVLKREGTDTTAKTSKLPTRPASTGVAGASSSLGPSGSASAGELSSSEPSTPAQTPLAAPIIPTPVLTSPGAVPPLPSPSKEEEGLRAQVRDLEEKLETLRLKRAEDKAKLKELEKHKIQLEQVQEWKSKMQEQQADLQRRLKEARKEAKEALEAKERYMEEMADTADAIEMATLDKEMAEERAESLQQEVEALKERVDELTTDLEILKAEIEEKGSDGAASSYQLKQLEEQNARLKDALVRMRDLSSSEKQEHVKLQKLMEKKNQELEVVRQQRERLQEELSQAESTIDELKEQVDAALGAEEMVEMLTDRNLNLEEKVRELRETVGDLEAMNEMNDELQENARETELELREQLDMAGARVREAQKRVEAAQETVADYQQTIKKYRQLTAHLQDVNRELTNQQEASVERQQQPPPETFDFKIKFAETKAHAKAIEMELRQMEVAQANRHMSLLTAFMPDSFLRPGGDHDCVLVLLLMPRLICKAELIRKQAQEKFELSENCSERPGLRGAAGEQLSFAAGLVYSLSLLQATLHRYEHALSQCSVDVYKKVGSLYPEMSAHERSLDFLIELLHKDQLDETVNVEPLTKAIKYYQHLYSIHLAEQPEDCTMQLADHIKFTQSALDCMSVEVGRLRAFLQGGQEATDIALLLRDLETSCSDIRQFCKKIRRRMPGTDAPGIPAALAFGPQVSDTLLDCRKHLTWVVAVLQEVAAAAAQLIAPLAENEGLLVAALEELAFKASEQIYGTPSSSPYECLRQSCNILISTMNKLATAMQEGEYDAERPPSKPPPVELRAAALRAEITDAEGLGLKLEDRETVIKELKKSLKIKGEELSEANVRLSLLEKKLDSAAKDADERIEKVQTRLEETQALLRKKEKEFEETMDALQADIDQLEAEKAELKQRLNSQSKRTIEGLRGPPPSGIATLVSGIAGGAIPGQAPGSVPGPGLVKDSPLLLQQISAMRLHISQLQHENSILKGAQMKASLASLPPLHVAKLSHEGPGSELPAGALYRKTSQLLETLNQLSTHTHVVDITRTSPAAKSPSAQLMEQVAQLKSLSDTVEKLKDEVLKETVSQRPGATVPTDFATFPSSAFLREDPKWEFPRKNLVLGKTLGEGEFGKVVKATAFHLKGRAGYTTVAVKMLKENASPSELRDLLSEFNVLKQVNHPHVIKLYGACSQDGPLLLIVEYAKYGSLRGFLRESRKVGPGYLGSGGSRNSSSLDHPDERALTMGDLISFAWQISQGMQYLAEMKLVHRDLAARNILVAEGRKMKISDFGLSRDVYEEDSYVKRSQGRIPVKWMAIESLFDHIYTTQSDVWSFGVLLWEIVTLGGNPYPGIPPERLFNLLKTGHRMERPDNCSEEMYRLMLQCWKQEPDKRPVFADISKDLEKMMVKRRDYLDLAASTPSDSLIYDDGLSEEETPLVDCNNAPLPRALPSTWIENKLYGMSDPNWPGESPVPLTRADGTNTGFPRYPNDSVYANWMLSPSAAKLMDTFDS
# Experimental: The expression of DCTN1-RET fusion protein in the obtained DCTN1-RET fusion gene-expressing NIH/3T3 cells was confirmed by western blotting. Specifically, the medium was removed from the culture flask, followed by washing with PBS once. Sample Diluent Concentrate 2 (R&D Systems) containing a phosphatase inhibitor (Roche) and a protease inhibitor (Roche) was added to the culture flask, and the cell lysate was collected with a scraper. From the collected cell lysate, a protein sample was obtained by centrifugation. The protein sample was subjected to protein determination, and the protein concentration was adjusted to a prescribed concentration. […] After the membrane was washed with TBS-T, the protein was detected using a SuperSignal West Dura Extended Duration Substrate (Thermo Fisher) with an Amersham Imager 600 lumino image analyzer (GE Healthcare). The molecular weight of the detected protein was confirmed with Precision Plus Protein Kaleidoscope Prestained Protein Standards (Bio-Rad). As shown in FIG. 4a) and 4b), endogenous RET (150 and 175 kDa) was not detected when the anti-pRET antibody or the anti-RET antibody was used. […] Additionally, as shown in FIG. 4c), endogenous DCTN1 was detected at around 150 kDa in the use of the anti-DCTN1 antibody. […]
# [2] = test system: DCTN1-RET fusion gene-expressing NIH/3T3 cells; assay: In vitro cell growth assay, 3-dimensional cell culture, intracellular ATP luminescence (CellTiter-Glo 2.0); details: for GI50: Mus musculus, NIH3T3
# [3] = test system: DCTN1-RET fusion gene-expressing NIH/3T3 cells; assay: Cell growth inhibitory effect of siRNA, 3-dimensional cell culture; assay type: cell-based, mouse; details: 3-dimensional cell culture after siRNA treatment; no treatment 4.9 times, negative control siRNA 3.6 times; FIG. 8
# Experimental: NIH/3T3 cells grow well under 2-dimensional cell culture conditions, but barely grow under 3-dimensional cell culture conditions. However, NIH/3T3 cells are also known to grow under 3-dimensional cell culture conditions when an oncogene is expressed in the cells. Thus, whether the DCTN1-RET fusion gene is an oncogene was confirmed using this character. DCTN1-RET fusion gene-expressing NIH/3T3 cells and NIH/3T3 cells were cultured at 37° C. in 5% CO2 in a 2-dimensional cell culture; and collected with trypsin, followed by counting the number of cells. To perform a 3-dimensional cell culture, a medium for 3-dimensional cell culture was prepared using an FCeM-series Preparation Kit (Nissan Chemical Industries, Ltd.), D-MEM (high glucose) (containing L-glutamine, phenol red, sodium pyruvate, and 1500 mg/L sodium hydrogen carbonate) (Wako), and newborn calf serum (NBCS) (Gibco). […] The day following seeding (day 1) and after 8 days from seeding (day 8), the luminescence level (counts per second: cps) was measured using a detection reagent for intracellular ATP luminescence (CellTiter-Glo 2.0 reagent, Promega) with a luminometer (EnSpire, PerkinElmer), and the result was determined to be the indicator for viable cell count. The cell growth rate was then calculated from the measurement result on day 1 and the measurement result on day 8 (N=3). […]
# Subsequently, to confirm a cell growth inhibitory effect, cells were collected with trypsin from the wells without treatment and wells treated with siRNA, and the number of cells was counted. A 3-dimensional cell culture was then performed in the same manner as in Example 5, and on the day seeding was performed (day 0) and after 4 days from seeding (day 4), the number of viable cells was counted in the same manner as in Example 5. The growth rate of the cells was calculated from the measurement result on day 0 and the measurement result on day 4.
# [4] = test system: DCTN1-RET fusion protein; assay: Inhibition of DCTN1-RET fusion protein expression by siRNA (western blotting); assay type: cell-based, human; details: siRNA treatment overnight, DCTN1-RET fusion gene-expressing NIH/3T3 cells, FIG. 7
Compound,GI50 [2],growth: number of cells on day 4 relative to day 0 [3],expression of the DCTN1-RET fusion protein [4],also measured
COc1cc2nccc(Oc3ccc(NC(=O)NC4CC4)c(Cl)c3)c2cc1C(N)=O [Lenvatinib],50.3 nM,–,–,"phosphorylated RET levels [1]: notably decreased; growth of DCTN1-RET fusion gene-expressing NIH/3T3 cells ([2]; result in words, as shown in Table 7): inhibited the growth"
CCc1cc2c(cc1N1CCC(N3CCOCC3)CC1)C(C)(C)c1[nH]c3cc(C#N)ccc3c1C2=O [Alectinib],> 1000 nM,–,–,–
"CCACUGCUACCACAAGUUUTT (CCACUGCUACCACAAGUUUNN; listed as RNA, chemistry not given here) [RET siRNA3, siRNA targeting human RET]",–,3.7 times,not inhibited,–
COc1cc2c(Nc3ccc(Br)cc3F)ncnc2cc1OCC1CCN(C)CC1 [Vandetanib],68.7 nM,–,–,–
"GGAUUGAAAACAAACUCUATT (GGAUUGAAAACAAACUCUANN; listed as RNA, chemistry not given here) [RET siRNA2, siRNA targeting human RET]",–,~2.4 times,inhibited,–
"COCc1ccc(NC(=O)c2c(C#CCN3CCOCC3)n(C3(C)CC3)c3ncnc(N)c23)cc1 [Compound 6, 4-amino-N-[4-(methoxymethyl)phenyl]-7-(1-methylcyclopropyl)-6-(3-morpholinopro-1-pyn-1-yl)-7H-pyrrolo[2,3-d]pyrimidine-5-carboxamide]",3.6 nM,–,–,–
"CACAUGUCAUCAAAUUGUATT (CACAUGUCAUCAAAUUGUANN; listed as RNA, chemistry not given here) [RET siRNA1, siRNA targeting human RET]",–,about 2.0 times,inhibited,–
COc1cc2nccc(Oc3ccc(NC(=O)C4(C(=O)Nc5ccc(F)cc5)CC4)cc3)c2cc1OC [Cabozantinib],91.1 nM,–,–,–
